Experimental data taken from ChEMBL document CHEMBL3785004, “New antimalarial norterpene cyclic peroxides from Xisha Islands sponge Diacarnus megaspinorhabdosa” (Bioorg Med Chem Lett, 2016).

What was measured:
Plasmodium falciparum [1] = test: Antimalarial activity against chloroquine resistant Plasmodium falciparum W2 after 72 hrs by LDH assay; type: functional, organism-based; settings: W2, 72 h
Plasmodium falciparum [2] = test: Antimalarial activity against chloroquine sensitive Plasmodium falciparum D6 after 72 hrs by LDH assay; type: functional, organism-based; settings: D6, 72 h
[3] = Selectivity index, ratio of IC50 for Vero cells to IC50 for chloroquine resistant Plasmodium falciparum W2; type: toxicity, cell-based; settings: monkey, read-out: Ratio IC50
[4] = Selectivity index, ratio of IC50 for Vero cells to IC50 for chloroquine sensitive Plasmodium falciparum D6; type: toxicity, cell-based; settings: monkey, read-out: Ratio IC50

SMILES | IC50 (Plasmodium falciparum [1]) [µM] | IC50 (Plasmodium falciparum [2]) [µM] | selectivity ratio [3] | selectivity ratio [4]
CC1=C(CC[C@]2(C)CC[C@H]([C@@H](C)C(=O)O)OO2)C(C)(C)CCC1 | 5.5 | 8.1 | 2.6 | 1.7
CC1=C(CC/C(C)=C/CC[C@@]2(C)CC[C@H]([C@H](C)C(=O)O)OO2)C(C)(C)CCC1 | 5.6 | 8.6 | 2.2 | 1.4
COC(=O)[C@H](C)[C@H]1CC[C@@](C)(CCC2=C(C)C(=O)CCC2(C)C)OO1 [DIACARPEROXIDE A] | 1.9 | 2 | 6.8 | 6.5
C[C@@H]1CC[C@H]2[C@@H](C)C(=O)O[C@@H]3O[C@@]4(C)CC[C@@H]1[C@]32OO4 [ARTEMISININ] | 0.14 |  |  | 
C=C1CCCC(C)(C)C1(O)CC/C(C)=C/CC[C@@]1(C)CC[C@H]([C@H](C)C(=O)O)OO1 (some centres undefined) | 4.9 | 7.3 | 2.4 | 1.6
C=C1CCCC(C)(C)C1(O)CC/C(C)=C/CC[C@@]1(C)CC[C@H]([C@H](C)C(=O)OC)OO1 (some centres undefined) | 1.6 | 2.2 | 7 | 5.1
COC(=O)[C@@H](C)[C@H]1CC[C@](C)(CC/C=C(\C)CCC2(O)C(C)CCCC2(C)C)OO1 (some centres undefined) | 4.2 | 5.6 | 2.6 | 2
COC(=O)[C@@H](C)[C@H]1CC[C@](C)(CC/C=C(\C)CCC2(C)C(C)CCCC2(C)O)OO1 (some centres undefined) | 3 | 6.6 | 3.7 | 1.7
